Results reported in patent publication US7439372B2, “Therapeutic compounds” (Allergan, Inc., priority 2006, dated 2008).

Key:
Type in all cases: cell-based
hDP/Gqs5 = target: T1, hDP/Gqs5 (Homo sapiens, UniProt Q13258); test: FLIPR calcium signal, HEK-293(EBNA) cells expressing hDP/Gqs5
T1 construct: expressed in transfected cells; host or cells: HEK-293(EBNA)
T1 sequence (Q13258 1-359): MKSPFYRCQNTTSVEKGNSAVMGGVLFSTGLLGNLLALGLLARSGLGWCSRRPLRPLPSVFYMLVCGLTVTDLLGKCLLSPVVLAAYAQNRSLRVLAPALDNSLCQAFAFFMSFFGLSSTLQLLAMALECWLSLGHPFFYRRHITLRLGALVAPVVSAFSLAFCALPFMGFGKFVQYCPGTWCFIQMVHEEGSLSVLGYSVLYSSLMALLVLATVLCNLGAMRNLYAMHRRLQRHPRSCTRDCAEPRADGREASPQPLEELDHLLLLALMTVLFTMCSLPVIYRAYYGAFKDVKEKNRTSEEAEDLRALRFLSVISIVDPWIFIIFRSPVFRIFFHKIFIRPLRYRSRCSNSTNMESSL
Description: (§1) HEK-293(EBNA) cells, stably expressing one type or subtype of recombinant human prostaglandin receptors (prostaglandin receptors expressed: hDP/Gqs5; hEP1; hEP2/Gqs5; hEP3A/Gqi5; hEP4/Gqs5; hFP; hIP; hTP), were cultured in 100 mm culture dishes in high-glucose DMEM medium containing 10% fetal bovine serum, 2 mM l-glutamine, 250 µg/ml geneticin (G418) and 200 μg/ml hygromycin B as selection markers, and 100 units/ml penicillin G, 100 µg/ml streptomycin and 0.25 μg/ml amphotericin B.
(§2) Cells were seeded at a density of 5×10^4 cells per well in Biocoat® Poly-D-lysine-coated black-wall, clear-bottom 96-well plates (Becton-Dickinson) and allowed to attach overnight in an incubator at 37° C. Cells were then washed two times with HBSS-HEPES buffer (Hanks Balanced Salt Solution without bicarbonate and phenol red, 20 mM HEPES, pH 7.4) using a Denley Cellwash plate washer (Labsystems). After 45 minutes of dye-loading in the dark, using the calcium-sensitive dye Fluo-4 […] at a final concentration of 2 μM, plates were washed four times with HBSS-HEPES buffer to remove excess dye leaving 100 μl in each well. Plates were re-equilibrated to 37° C. for a few minutes.
(§3) Cells were excited with an Argon laser at 488 nm, and emission was measured through a 510-570 nm bandwidth emission filter (FLIPR™, Molecular Devices, Sunnyvale, Calif.). Drug solution was added in a 50 µl volume to each well to give the desired final concentration. The peak increase in fluorescence intensity was recorded for each well. On each plate, four wells each served as negative (HBSS-HEPES buffer) and positive controls (standard agonists: BW245C (hDP); PGE2 (hEP1; hEP2/Gqs5; hEP3A/Gqi5; hEP4/Gqs5); PGF2α (hFP); carbacyclin (hIP); U-46619 (hTP), depending on receptor). The peak fluorescence change in each drug-containing well was then expressed relative to the controls.
(§4) Compounds were tested in a high-throughput (HTS) or concentration-response (CoRe) format. In the HTS format, forty-four compounds per plate were examined in duplicates at a concentration of 10^−5 M. To generate concentration-response curves, four compounds per plate were tested in duplicates in a concentration range between 10^−5 and 10^−11 M. The duplicate values were averaged. In either, HTS or CoRe format each compound was tested on at least 3 separate plates using cells from different passages to give an n≧3.

hEP4/Gqs5 = target: T2, hEP4/Gqs5 (Homo sapiens, UniProt P35408); test: FLIPR calcium signal, HEK-293(EBNA) cells expressing hEP4/Gqs5; conditions: for EC50: read-out: Ca2+ Signal-EC50(nM) EP4
T2 construct: expressed in transfected cells; host or cells: HEK-293(EBNA)
Description: as §1, §2, §3, §4

hEP3A/Gqi5 = target: T3, hEP3A/Gqi5 (Homo sapiens, UniProt P43115); test: FLIPR calcium signal, HEK-293(EBNA) cells expressing hEP3A/Gqi5; conditions: for EC50: read-out: Ca2+ Signal-EC50(nM) EP3
T3 construct: expressed in transfected cells; host or cells: HEK-293(EBNA)
T3 sequence (P43115 1-390): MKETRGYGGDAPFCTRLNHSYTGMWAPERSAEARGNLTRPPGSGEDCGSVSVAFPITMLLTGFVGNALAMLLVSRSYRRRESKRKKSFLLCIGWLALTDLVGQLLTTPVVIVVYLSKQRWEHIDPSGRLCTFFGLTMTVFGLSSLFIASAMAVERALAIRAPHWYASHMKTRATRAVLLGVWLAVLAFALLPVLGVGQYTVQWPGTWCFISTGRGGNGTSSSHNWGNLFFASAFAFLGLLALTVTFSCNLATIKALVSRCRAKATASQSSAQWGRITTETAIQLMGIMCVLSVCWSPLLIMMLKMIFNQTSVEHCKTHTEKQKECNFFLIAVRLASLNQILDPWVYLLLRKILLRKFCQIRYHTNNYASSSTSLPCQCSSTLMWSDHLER
Description: as §1, §2, §3, §4

hIP = target: T4, hIP (Homo sapiens, UniProt P43119); test: FLIPR calcium signal, HEK-293(EBNA) cells expressing hIP
T4 construct: expressed in transfected cells; host or cells: HEK-293(EBNA)
Description: as §1, §2, §3, §4

hEP1 = target: T5, hEP1 (Homo sapiens, UniProt P34995); test: FLIPR calcium signal, HEK-293(EBNA) cells expressing hEP1
T5 construct: expressed in transfected cells; host or cells: HEK-293(EBNA)
T5 sequence (P34995 1-402): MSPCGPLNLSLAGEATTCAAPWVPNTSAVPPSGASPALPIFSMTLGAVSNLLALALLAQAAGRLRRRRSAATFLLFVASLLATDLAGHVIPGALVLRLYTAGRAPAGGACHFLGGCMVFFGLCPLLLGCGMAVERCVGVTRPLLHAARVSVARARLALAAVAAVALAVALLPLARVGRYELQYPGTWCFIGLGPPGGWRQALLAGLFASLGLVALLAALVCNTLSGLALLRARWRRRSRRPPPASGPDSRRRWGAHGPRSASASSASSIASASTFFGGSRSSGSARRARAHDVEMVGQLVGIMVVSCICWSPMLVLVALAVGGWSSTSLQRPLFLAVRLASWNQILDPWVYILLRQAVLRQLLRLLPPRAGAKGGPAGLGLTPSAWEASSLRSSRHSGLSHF
Description: as §1, §2, §3, §4

hEP2/Gqs5 = target: T6, hEP2/Gqs5 (Homo sapiens, UniProt P43116); test: FLIPR calcium signal, HEK-293(EBNA) cells expressing hEP2/Gqs5; conditions: value outside parentheses, read-out: Ca2+ Signal-EC50(nM) EP2
T6 construct: expressed in transfected cells; host or cells: HEK-293(EBNA)
Description: as §1, §2, §3, §4

EP2 = EP2 (Homo sapiens, UniProt P43116); test: cAMP measurement, EP2 (data in parentheses); conditions: data in parentheses refer to cAMP measurement
hTP = target: T7, hTP (Homo sapiens, UniProt P21731); test: FLIPR calcium signal, HEK-293(EBNA) cells expressing hTP
T7 construct: expressed in transfected cells; host or cells: HEK-293(EBNA)
T7 sequence (P21731 1-343): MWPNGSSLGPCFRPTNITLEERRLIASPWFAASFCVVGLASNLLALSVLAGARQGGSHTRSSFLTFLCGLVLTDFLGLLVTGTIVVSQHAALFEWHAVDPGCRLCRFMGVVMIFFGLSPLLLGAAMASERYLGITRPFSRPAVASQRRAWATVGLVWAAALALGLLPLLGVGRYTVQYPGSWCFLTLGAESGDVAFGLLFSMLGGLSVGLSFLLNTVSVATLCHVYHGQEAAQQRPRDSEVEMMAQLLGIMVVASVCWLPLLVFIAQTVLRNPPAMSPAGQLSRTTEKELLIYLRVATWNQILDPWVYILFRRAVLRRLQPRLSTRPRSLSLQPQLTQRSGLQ
Description: as §1, §2, §3, §4

Sequence of EP2 (P43116 whole entry): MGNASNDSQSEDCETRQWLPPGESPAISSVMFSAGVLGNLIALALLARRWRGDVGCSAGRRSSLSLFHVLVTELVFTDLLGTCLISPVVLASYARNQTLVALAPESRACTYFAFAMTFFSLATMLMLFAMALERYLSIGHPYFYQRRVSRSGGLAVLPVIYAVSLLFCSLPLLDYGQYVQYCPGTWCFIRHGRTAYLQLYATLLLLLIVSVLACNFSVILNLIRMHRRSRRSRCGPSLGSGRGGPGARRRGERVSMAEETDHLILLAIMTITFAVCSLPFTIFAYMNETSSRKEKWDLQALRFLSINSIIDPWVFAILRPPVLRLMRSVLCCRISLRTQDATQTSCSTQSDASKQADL
T6 sequence (P43116 whole entry): as above
T4 sequence (P43119 whole entry): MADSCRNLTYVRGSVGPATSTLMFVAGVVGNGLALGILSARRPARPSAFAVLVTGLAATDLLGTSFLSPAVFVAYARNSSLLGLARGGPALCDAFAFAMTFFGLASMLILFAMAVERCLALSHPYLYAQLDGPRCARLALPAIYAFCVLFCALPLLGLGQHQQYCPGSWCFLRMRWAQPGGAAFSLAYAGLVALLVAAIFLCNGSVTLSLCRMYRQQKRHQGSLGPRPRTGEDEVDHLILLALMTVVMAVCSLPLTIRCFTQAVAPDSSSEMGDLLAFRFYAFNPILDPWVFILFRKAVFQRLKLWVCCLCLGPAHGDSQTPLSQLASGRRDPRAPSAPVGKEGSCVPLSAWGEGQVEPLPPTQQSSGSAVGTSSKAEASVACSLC
T2 sequence (P35408 whole entry): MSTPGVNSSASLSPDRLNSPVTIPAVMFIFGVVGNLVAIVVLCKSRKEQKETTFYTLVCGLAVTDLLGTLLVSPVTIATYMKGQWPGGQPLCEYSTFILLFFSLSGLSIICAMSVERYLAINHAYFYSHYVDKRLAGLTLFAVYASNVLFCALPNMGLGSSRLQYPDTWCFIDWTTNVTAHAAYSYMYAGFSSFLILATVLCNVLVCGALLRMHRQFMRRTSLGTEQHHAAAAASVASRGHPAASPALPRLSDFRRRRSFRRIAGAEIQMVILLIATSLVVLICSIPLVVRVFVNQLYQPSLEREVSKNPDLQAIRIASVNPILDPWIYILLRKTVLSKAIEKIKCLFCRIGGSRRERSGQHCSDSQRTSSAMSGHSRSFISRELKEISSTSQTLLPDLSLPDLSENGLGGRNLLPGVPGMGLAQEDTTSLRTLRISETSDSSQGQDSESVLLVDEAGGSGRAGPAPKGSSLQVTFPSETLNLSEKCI

Ca2+ Signal-EC50(nM) DP (hDP/Gqs5)	EC50 (hEP4/Gqs5) [nM]	EC50 (hEP3A/Gqi5) [nM]	Ca2+ Signal-EC50(nM) IP (hIP)	Ca2+ Signal-EC50(nM) EP1 (hEP1)	EC50 (hEP2/Gqs5) [nM]	EC50 (EP2) [nM]	Ca2+ Signal-EC50(nM) TP (hTP)	EC50 (hDP/Gqs5; read-out: Ca2+ Signal-EC50(nM) DP) [nM]	Ca2+ Signal-EC50(nM) EP4 (hEP4/Gqs5)	Ca2+ Signal-EC50(nM) EP3 (hEP3A/Gqi5)	Structure (SMILES)
notactive	> 10000	8780	notactive	notactive	62	5	notactive	–	–	–	CCCCCC(O)c1ccc([C@H]2C(=O)CC[C@@H]2CCCc2ccc(C(=O)O)s2)cc1 (some centres unmarked) [compound 1]
–	–	–	notactive	notactive	25	9	notactive	9060	notactive	notactive	CCCCCC(O)c1ccc([C@H]2C(=O)CC[C@@H]2CCCc2ccc(C(=O)O)s2)cc1 (some centres unmarked) [compound 2]
notactive	–	–	notactive	notactive	1620	3	notactive	–	notactive	notactive	CCCCCC(O)c1ccc([C@@H]2[C@@H](CCCc3ccc(C(=O)O)s3)CCC2(Cl)Cl)cc1 (some centres unmarked) [compound 3]
notactive	–	4420	notactive	notactive	381	34	notactive	–	notactive	–	CCCCCC(O)c1ccc([C@H]2C(=O)CC[C@@H]2C/C=C\CCCC(=O)O)cc1 (some centres unmarked) [compound 5]
notactive	–	182	notactive	notactive	731	94	notactive	–	notactive	–	CCCCCC(O)c1ccc([C@@H]2[C@@H](C/C=C\CCCC(=O)O)CC[C@H]2Cl)cc1 (some centres unmarked) [compound 6]
notactive	> 10000	3480	notactive	notactive	2510	73	notactive	–	–	–	CCCCCC(O)c1ccc([C@@H]2[C@@H](C/C=C\CCCC(=O)O)CC[C@H]2O)cc1 (some centres unmarked) [compound 7]
notactive	> 10000	4550	notactive	notactive	208	9	notactive	–	–	–	CCCCCC(O)c1ccc([C@H]2C(=O)C=C[C@@H]2CCCc2ccc(C(=O)O)s2)cc1 (some centres unmarked) [compound 11]
